“And” between values parts separate entries of the source, which are not always exact repeats. Equal values may be shown once. Marks after values point to notes of the source that are not given here.
What was measured:
[1] = Skin permeation studies in Franz diffusion cells; assay type: in vitro ADME, porcine; details: after 24 h permeation from ethanolic solution into acceptor phase
[2] = n-octanol/water and n-octanol/phosphate buffer partition coefficient; assay type: physicochemical; details: for log PpH=5.4: n-octanol/phosphate buffer pH 5.4, 25 °C; for log PpH=7.4: n-octanol/phosphate buffer pH 7.4, 25 °C
[3] = Thermal stability by TG analysis; assay type: physicochemical
[4] = Accumulation in the skin after 24 h permeation; assay type: in vitro ADME, porcine; details: after 24 h skin permeation from ethanolic solution; for Skin accumulation: acceptor fluid pH 7.4, n = 3
Solubility = assay type: physicochemical; details: for Solubility in water: deionised water, 25 °C; for Solubility in phosphate buffer pH = 5.4: pH 5.4, 25 °C; for Solubility in phosphate buffer pH = 7.4: pH 7.4, 25 °C
L929 cell lines = details: high concentrations; cited from earlier work
[5] = known ibuprofen salts; cited from earlier work
[6] = Britton–Robinson buffer at pH 7.4 as acceptor and donor solution; cited from earlier work
[7] = Solubility in organic solvents by modified Vogel's method; assay type: physicochemical; details: 25 °C

| Compound | Permeation as % applied dose of IBU [1] [%] | log PpH=5.4 [2] | log PpH=7.4 [2] | T onset, the onset temperature of the thermal degradation [3] [°C] | Skin accumulation as % applied dose of IBU [4] [%] | Skin accumulation [4] | Solubility in water (Solubility) [g dm^−3] | Solubility in phosphate buffer pH = 5.4 (Solubility) [g dm^−3] | Solubility in phosphate buffer pH = 7.4 (Solubility) [g dm^−3] | Decrease of viability (L929 cell lines) [%] | log P [5] | Increase in flux compared to IBU [6] | logP ([2]; n-octanol/water) | Flux [6] [μg cm^−2 h^−1] | Solubility in hexane (in words) [7] |
| --- | --- | --- | --- | --- | --- | --- | --- | --- | --- | --- | --- | --- | --- | --- | --- |
| L-valine isopropyl ester ibuprofenate [[ValOiPr][IBU]] | 12.09 | 2.186 ± 0.001 | 1.172 ± 0.001 | 90.2 | 4.9 | 630.75 ± 61.87 ^a μg IBU g^−1 | – | – | – | – | – | – | – | – | – |
| CC(C)Cc1ccc(C(C)C(=O)O)cc1.CCCOC(=O)[C@@H](N)C(C)C [[ValOPr][IBU], L-valine propyl ester ibuprofenate] | 13.55 | 2.061 ± 0.001 | 1.197 ± 0.003 | 109.5 | 5.9 | 726.42 ± 113.37 ^a μg IBU g^−1 | 4.221 ± 0.033 | 3.057 ± 0.045 | 5.367 ± 0.019 | – | – | – | – | – | – |
| CC(C)Cc1ccc(C(C)C(=O)O)cc1.CCCCOC(=O)[C@@H](N)C(C)C [[ValOBu][IBU], L-valine butyl ester ibuprofenate] | 10.66 | – | – | 119.9 | 7.0 | 815.14 ± 58.92 ^b μg IBU g^−1 | 3.125 ± 0.007 | 2.371 ± 0.016 | 3.089 ± 0.015 | – | – | – | – | – | – |
| CC(C)Cc1ccc(C(C)C(=O)O)cc1.CCOC(=O)[C@@H](N)C(C)C [[ValOEt][IBU], L-valine ethyl ester ibuprofenate] | 7.33 | 2.023 ± 0.001 | 1.026 and 1.026 ± 0.001 | 89.5 | 3.5 | 412.19 ± 38.45 μg IBU g^−1 | 5.542 ± 0.007 | 3.969 ± 0.056 | 5.206 ± 0.044 | – | – | – | – | – | – |
| CCOC(=O)[C@@H]1CCCN1 [proline ethyl ester] | – | – | – | – | – | – | – | – | – | 20 | – | – | – | – | – |
| CC(C)Cc1ccc(C(C)C(=O)[O-])cc1.CCCC[P+](CCCC)(CCCC)CCCC [[P4,4,4,4][IBU]] | – | – | – | – | – | – | – | – | – | – | 1.54 | – | – | – | – |
| CC(C)Cc1ccc(C(C)C(=O)[O-])cc1.CCCCn1cc[n+](C)c1 (stereo not shown) [[BMIm][IBU]] | – | – | – | – | – | – | – | – | – | – | 1.15 | – | – | – | – |
| CC(C)Cc1ccc(C(C)C(=O)[O-])cc1.CCCCCC[N+](CCCCCC)(CCCCCC)CCCCCC [[N6,6,6,6][IBU]] | – | – | – | – | – | – | – | – | – | – | 2.47 | four–five-fold | – | – | – |
| CC(C)Cc1ccc(C(C)C(=O)O)cc1 (racemic) [rac-IBU, 2-(4-isobutylphenyl)-propionic acid, reference compound] | 6.06 | 3.192 | 1.284 | 189.8 | 3.1 | 745.69 ± 61.87 μg IBU g^−1 | – | – | – | – | – | – | 2.415 ± 0.001 | 0.542 | – |
| CC(C)Cc1ccc(C(C)C(=O)O)cc1.CCCCCOC(=O)[C@@H](N)C(C)C [[ValOAm][IBU], L-valine pentyl ester ibuprofenate] | 11.79 | 2.421 ± 0.002 | 1.259 ± 0.001 | 129.8 | – | 565.60 ± 71.09 ^a μg IBU g^−1 | 1.798 ± 0.019 | 1.380 ± 0.007 | 1.931 ± 0.008 | – | – | – | – | – | partly soluble (partly soluble when 33–100 mg of compound dissolved in 1 cm^3) |
| CC(C)Cc1ccc(C(C)C(=O)[O-])cc1.CCCCCCCCCC[N+](C)(C)CCCCCCCCCC [[N1,1,10,10][IBU]] | – | – | – | – | – | – | – | – | – | – | 1.87 | four–five-fold | – | – | – |
| CC(C)Cc1ccc(C(C)C(=O)O)cc1.CCCCCCOC(=O)[C@@H](N)C(C)C [[ValOHex][IBU], L-valine hexyl ester ibuprofenate] | 9.81 | 2.880 ± 0.011 | 1.279 and 1.279 ± 0.001 | 128.9 | – | 612.86 ± 129.33 ^a μg IBU g^−1 | 1.058 ± 0.002 | 0.759 ± 0.006 | 1.233 ± 0.001 | – | – | – | – | – | soluble (soluble when more than 100 mg of compound was soluble in 1 cm^3) |
